Data from ChEMBL document CHEMBL1142861, “Septocylindrins A and B: peptaibols produced by the terrestrial fungus Septocylindrium sp. LL-Z1518” (2007).
Converted amounts (≈) assume the structure as drawn. Non-standard residues stand in square brackets, D forms with d. Residues, ends and D or L forms follow the SMILES beside them. *: point of attachment. X1 = OCCNC[C@H](Cc1ccccc1)N*; Aib = CC(C)(N)C(=O)O

Experiments:
Format in all cases: functional
Staphylococcus aureus [1] = assay: Antimicrobial activity against wild type Staphylococcus aureus by broth dilution method
Staphylococcus aureus [2] = assay: Antimicrobial activity against methicillin-resistant Staphylococcus aureus by broth dilution method
Enterococcus faecium = assay: Antimicrobial activity against vancomycin-resistant Enterococcus faecium by broth dilution method
Escherichia coli [3] = assay: Antimicrobial activity against membrane permeability mutant Escherichia coli imp by broth dilution method
Escherichia coli [4] = assay: Antimicrobial activity against wild type Escherichia coli by broth dilution method
Candida albicans = assay: Antimicrobial activity against Candida albicans by broth dilution method

| Compound | MIC (Staphylococcus aureus [1]) [µg/mL] | MIC (Staphylococcus aureus [2]) [µg/mL] | MIC (Enterococcus faecium) [µg/mL] | MIC (Escherichia coli [3]) [µg/mL] | MIC (Escherichia coli [4]) [µg/mL] | MIC (Candida albicans) [µg/mL] |
| --- | --- | --- | --- | --- | --- | --- |
| CC(=O)NC(C)(C)C(=O)N1CCC[C@H]1C(=O)NC(C)(C)C(=O)N[C@@H](C)C(=O)NC(C)(C)C(=O)N[C@@H](C)C(=O)N[C@@H](CCC(N)=O)C(=O)NC(C)(C)C(=O)N[C@H](C(=O)NC(C)(C)C(=O)NCC(=O)N[C@@H](CC(C)C)C(=O)NC(C)(C)C(=O)N1CCC[C@H]1C(=O)N[C@H](C(=O)NC(C)(C)C(=O)NC(C)(C)C(=O)N[C@@H](CCC(=O)O)C(=O)N[C@@H](CCC(N)=O)C(=O)N[C@H](CNCCO)Cc1ccccc1)C(C)C)C(C)C [septocylindrin A] (Ac-[Aib]P[Aib]A[Aib]AQ[Aib]V[Aib]GL[Aib]PV[Aib][Aib]EQ-X1) | 32 (≈ 15.9 µM) | 128 (≈ 63.8 µM) | 16 (≈ 7.97 µM) | 32 (≈ 15.9 µM) | > 128 | 32 (≈ 15.9 µM) |
| CC(=O)NC(C)(C)C(=O)N1CCC[C@H]1C(=O)NC(C)(C)C(=O)N[C@@H](C)C(=O)NC(C)(C)C(=O)N[C@@H](C)C(=O)N[C@@H](CCC(N)=O)C(=O)NC(C)(C)C(=O)N[C@H](C(=O)NC(C)(C)C(=O)NCC(=O)N[C@@H](CC(C)C)C(=O)NC(C)(C)C(=O)N1CCC[C@H]1C(=O)N[C@H](C(=O)NC(C)(C)C(=O)NC(C)(C)C(=O)N[C@@H](CCC(N)=O)C(=O)N[C@@H](CCC(N)=O)C(=O)N[C@H](CNCCO)Cc1ccccc1)C(C)C)C(C)C [septocylindrin B] (Ac-[Aib]P[Aib]A[Aib]AQ[Aib]V[Aib]GL[Aib]PV[Aib][Aib]QQ-X1) | 8 (≈ 3.99 µM) | 16 (≈ 7.97 µM) | 8 (≈ 3.99 µM) | 8 (≈ 3.99 µM) | > 128 | 16 (≈ 7.97 µM) |
